For one assay, the system named is K562 cells. The assay can be described thus: K562 cell proliferation assay (CellTiter-Glo). The format is cell-based. Conditions: Homo sapiens; K562 cell line, 72 hours, cell viability. The procedure: K562 cells, cultured in Iscove's Modified Dulbecco's Media (IMDM) supplemented with 10% FBS, were harvested at 50-80% confluency and plated at 2,000 cells per well in 384-well tissue culture plates. A subset of wells contained media only (low control, LC). Compounds were serially diluted in DMSO. 40 nL of compound or DMSO only (high control, HC) were added to each well using an Echo 550 liquid handler (Labcyte). The plates were placed in a 37° C. incubator with 5% CO2 for 72 hours. Cell viability was measured using a CellTiter-Glo luminescent cell viability assay (Promega), which allows for relative quantification of metabolically active cells by luminescence-based measurements of intracellular ATP concentrations. Briefly, plates were removed from the incubator and equilibrated for 15 minutes at room temperature prior to the addition of 40 μL of CellTiter-Glo reagent. Plates were then incubated for 30 minutes at room temperature. Luminescence was measured using an EnSpire plate reader (Perkin Elmer). As noted above, luminescence values from wells with DMSO only or media without cells were used as high and low controls (HC and LC), respectively. Normalized percent viability was calculated as follows: percent viability=100×(LumSample−LumLC)/(LumHC−LumLC). IC50 values were calculated using the XLFit software.
In general terms: Cellular ATP, detected with luciferase, serves as a proxy for viable cell number.

The target of the next assay is ABL1 (Homo sapiens (Human), UniProt P00519). Put plainly: Luminescence-based ABL kinase assay (Km ATP), ADP-Glo. The format is biochemical. Conditions: measured using the Abl1 Km assay, read-out: IC50 (nM), value inside parentheses. Here is the method: (§1) Kinase activity of ABL1 was measured using the ADP-Glo system (Promega), which measures formation of ADP using a luminescence-based method. Compounds were serially diluted in DMSO. 20 nL of compound or DMSO only (high control, HC) were added to a 384-well plate (OptiPlate-384, PerkinElmer) using an Echo550 liquid handler (Labcyte). 15 μL of kinase solution (10 mM MgCl2, 0.01% Brij-35, 2 mM DTT, 0.05% BSA, 1 mM EGTA, 50 mM HEPES pH 7.5, and 3.325 nM ABL1 [Carna Biosciences]) were added to each well of the 384-well plate containing the compounds. No enzyme control wells were included (low control, LC). The plate was incubated at room temperature for 30 minutes. 5 μL of a second solution containing 10 mM MgCl2, 0.01% Brij-35, 2 mM DTT, 0.05% BSA, 1 mM EGTA, 50 mM HEPES pH 7.5, 6 μM Peptide 2 (Perkin Elmer, Cat No 760346), and 40 μM ATP were added to each well to start the kinase reaction. The plate was incubated for 90 minutes at room temperature. 20 μL of ADP-Glo reagent (Promega) were then added to each well and the plate was incubated for 40 minutes at room temperature. 40 μL of kinase detection reagent (Promega) was added to each well and the plate was incubated for an additional 45 minutes at room temperature. During this step, ADP was converted to ATP, a substrate for luciferase, to produce luminescence signal. Luminescence was measured on an Envision plate reader (Perkin Elmer). Luminescence signal positively correlates with kinase activity. The percent kinase activity was calculated as follows: percent kinase activity=100×(LumSample−LumLC)/(LumHC−LumLC). As noted above, DMSO only and no enzyme wells were used as high and low controls, respectively. IC50 values were calculated using the XLFit software.
For orientation: In ADP-Glo the light output rises with the ADP produced.

Another assay deals with ABL1 (T315I) (Homo sapiens (Human), UniProt P00519, T315I). The assay is described as above. Conditions: measured using the Abl1 Km assay, read-out: IC50 (nM), value inside parentheses. The assay is classed as biochemical. Here is the method:
as §1

Assay [1] has as its system phosphorylated ERK (pERK). The assay can be described thus: Detection of phosphorylated ERK (pERK), AlphaLISA in A375 cells. The assay is classed as cell-based. As to conditions: Homo sapiens, A-375, 4 h, four hours incubation, inhibition of ERK phosphorylation, read-out: PERK ELISA (IC50). Here is the method: A375 cells were counted and seeded at 10,000 cells/well in 384 well plates (Corning 3764) and allowed to adhere overnight.
Compounds were dissolved and serially diluted in DMSO. The compounds were then added, mixed, and incubated for four hours at 37° C., 5% CO2. Compounds were added using four-fold dilutions at final concentrations ranging from 10 μM to 0.01 nM. DMSO only and 10 uM staurosporine were added as high and low controls.
Following the four-hour incubation with compounds, cell lysates were prepared and AlphaLISA assay measuring phosphorylated ERK was performed. Media was removed using the Apricot Designs pipettor. Lysis buffer was made from 1× AlphaLISA SureFire Assay Kit (AlphaLISA SureFire Ultra pERK 12 (Thr202/Tyr204) ALSU-PERK-A50K) lysis buffer with protease and phosphatase inhibitors. Cells were lysed by adding 10 uL to all the wells and mixed for 40 minutes on a plate shaker. 10 uL cell lysate was transferred to a new Optiplate (PerkinElmer 6007290) and incubated with 5 uL 1× acceptor mix for 2 hours in the dark. 5 uL of 1× donor mix was added to all wells and mixed by shaking followed by overnight incubation in the dark.
pERK AlphaLISA signal was read on the Envision using standard AlphaLISA settings. Percent inhibition of ERK phosphorylation was calculated by % Inhibition=100×(LumHC−LumSample)/(LumHC−LumLC). The low and high controls (LC/HC) are generated from lysate from wells with cells treated with DMSO or […] Staurosporine (BioAustralis, cat #BIA-S1086), […]. IC50 values were calculated by fitting the Curve using XLfit (v5.3.1.3), equation 201: Y=Bottom+(Top−Bottom)/(1+10^((Log IC50−X)*HillSlope)).
On the technique in general: Bead proximity is the source of the signal in Alpha formats.

Here are results for two molecules from patent US20240287062A1, “NAPHTHYRIDONE COMPOUNDS FOR INHIBITION OF RAF KINASES AND/OR BCR-ABL TYROSINE KINASES” (Enliven Inc., priority 2021, published 2024).

For `Cc1c(F)cncc1-c1cc2cnc(NC(=O)C3CC3)cc2n(C)c1=O` [Compound 2, N-[3-(5-fluoro-4-methylpyridin-3-yl)-1-methyl-2-oxo-1,6-naphthyridin-7-yl]cyclopropanecarboxamide], the concentration for half-maximal inhibition (IC50) with K562 cells was determined as 28 nM; at ABL1, 1.8 nM; at ABL1 (T315I), 680 nM; in assay [1] it was 189 nM.
In the case of `Cc1c(F)cncc1-c1cc2cnc(NC(=O)[C@@H]3C[C@@H]3F)cc2n(C)c1=O` [Compound 28, (1S,2S)-2-fluoro-N-[3-(5-fluoro-4-methylpyridin-3-yl)-1-methyl-2-oxo-1,6-naphthyridin-7-yl]cyclopropane-1-carboxamide], the IC50 was found to be 47 nM with K562 cells, 2.2 nM on ABL1, 1500 nM at ABL1 (T315I) and 146 nM in assay [1].

Broadly, the IC50 is the concentration that gives 50% inhibition.
